“Also recorded” adds a separate entry of the source.
Tests used:
[1] = system: Zebrafish myogenic progenitor cells (ZeMPCs); test: Limiting dilution engraftment assay (ELDA): cells treated ex vivo, transplanted into adult zebrafish, imaged at 7 dpt; assay type: in vivo
Description: Donor cells were derived from embryos that contained a GFP cassette driven by the promoter for mylz2, a muscle-specific structural protein. Recipients were optically clear, immunocompromised adult prkdc−/− zebrafish. To perform a limiting dilution assay, three doses (n=100, 200, and 400 cells) were administered per treatment (n=10 engraftment events per treatment-dose combination). The estimated engrafting cell frequency was calculated using the Extreme Limiting Dilution Analysis (ELDA, Hu et. al. 2009), which provides the most likely estimate (MLE) of engrafting cell frequency.
Given that this group of 230 lipids is too many to be examined in mice, transplantation efficiency was instead examined via limit-dilution assays in 15 recipient zebrafish per compound after a brief (4 hour) ex vivo chemical exposure. Positive hits from this primary screening were rescreened in replicate transplantation experiments incorporating dose response testing.
Lipids are frequently found to enhance cell migration and homeostasis in blood and muscle tissue (Cencetti et al., 2014; Lahvic et al., 2018; Li et al., 2015; Oh et al., 2016), and so it was elected to screen mainly bioactive lipids in efforts to identify compounds that enhance ZeMPCs engraftment efficiency in vivo. Myogenic progenitor cells were treated for 4 hours with one of the 188 unique lipid compounds contained in the ICCB Known Bioactives Library. Compound-treated cells were then harvested and transplanted intramuscularly into both flanks of 5 different casper recipient fish, with transplants performed at each of 3 transplanted cell doses (25, 75 or 150 cells). In these studies, recipient fish received split-dose irradiation of 15 Gy at 2 days and 1 day prior to transplantation to suppress any immune responses to the transplanted cells. Engraftment efficiency was measured by imaging casper recipients at 7 dpt (FIG. 18A). […] For this secondary screening approach, cells were transplanted into prkdc^D3612ls casper fish, which are deficient in mature T and B cells, and assayed engraftment efficiency in the recipient fish 7 days post-transplantation. Two compounds were identified, lysophosphatidic acid (LPA) and niflumic acid (NFA), which increased ZeMPC engraftment efficiency in both of these assay systems (FIG. 12B).
Lipids from the ICCB Known Bioactives Library (enzolifesciences.com/BML-2840/iccb-known-bioactives-library) were diluted at a 1:100 ratio in transplantation media (zESC medium without bFGF and FBS) and added to prewashed in vitro expanded muscle cells. NFA (Cayman and Santa Cruz Biotechnology) and LPA (Cayman and Santa Cruz Biotechnology) were used for the secondary confirmation screening experiments. […] 4- to 8-month-old casper recipients received split-dose irradiation of 15 Gy each, either 2 days or 1 day before transplantation. For LDA screening, cells were transplanted into each side of 5 pre-irradiated casper recipient fish or 5 non-irradiated prkdc-mutant recipient zebrafish. At 7 dpt, the recipients were anaesthetized using a previously described method (Dang et al., 2016) and imaged using a fluorescent stereo microscope (Leica M165 FC). Successful engraftment was defined as the presence of GFP+ fibers. Variation in different experiments is caused by inherent variability in the in vitro ZeMPC derivation procedure, which results in differences in engrafting cell frequency across different derivation attempts. To mitigate the impact of such experimental variation on screening results, only LDA results for cells derived from the same cultures were compared. Comparison to a vehicle-treated experimental control was included in every transplantation experiment. Next, the chemical treated cell potency and vehicle-treated cell potency was measured using the Extreme Limiting Dilution Analysis (ELDA) software (Hu and Smyth, 2009). The ratio of the treated cell potency and vehicle-treated cell potency determine the engraftment efficiency fold increase value.

ZeMPCs = test: Calcium imaging in Fura-2, AM treated ZeMPCs (single-cell imaging); assay type: cell-based, zebrafish; details: 10 μM NFA, 5 μM LPA, 10 μM ionomycin; 10-20 seconds after loading
Description: Fura-2, AM treated ZeMPCs were exposed to 10 μM NFA, 5 μM LPA, 10 μM lonomycin (as a positive control) and DMSO (as vehicle control) to visualize their effect on intracellular calcium ion concentration using single-cell imaging. […] Scale bar 50 μm.
(§1) The ZeMPCs and C2C12 cells were incubated with Fura-2, AM (Thermo Fisher Sci F1225), a cell permeant fluorescent calcium ion indicator, for 45 minutes at 28.5° C. and 37° C., respectively, followed by imaging with Celldiscoverer7 Microscope (Zeiss). 20 seconds after imaging initiation the treatment was added to the cells and continued for a total of 2-3 minutes.

C2C12 cells = test: Calcium imaging in Fura-2, AM treated C2C12 cells (single-cell imaging); assay type: cell-based, mouse; details: 10 μM NFA, 5 μM LPA; 10-20 seconds after loading
Description: Fura-2, AM treated C2C12 cells were exposed to 10 μM NFA, 5 μM LPA or DMSO as vehicle control to visualize the effect on intracellular calcium ion concentration using single-cell imaging. […] Scale bar 50 μm.
as §1

SMILES	engraftment efficiency of treated ZeMPCs ([1]; prkdc-mutant zebrafish, vs vehicle-treated controls)	intracellular calcium ion concentration (ZeMPCs)	intracellular calcium ion concentration (C2C12 cells)	engraftment frequency ([1]; concurrent injection of donor cells with 10 uM MFA)	estimated engrafting cell frequency / engraftment ([1]; donor cells treated 2 hours with 10 uM MFA before transplantation, vs vehicle, p=0.0367)
C[C@H](CCC(=O)O)C[C@H](C)C[C@H](C)C(=O)/C=C(\O)[C@H](C)C[C@H](C)C/C=C/[C@@H](C)[C@@H](O)[C@@H](C)[C@@H](O)C[C@@H]1CC[C@@](C)([C@H]2CC[C@@](C)([C@@H](C)O)O2)O1 [ionomycin]	increased the engraftment efficiency	increase	increase	–	–
Cc1ccc(Cl)c(Nc2ccccc2C(=O)O)c1Cl [MFA, meclofenamic acid]	–	–	–	not sufficient to increase engraftment frequency	increase the engraftment capacity; also recorded: optimally increase engraftment; also recorded: higher
